The values below come from paper PMC2892826 (Cell cycle (Georgetown, Tex.), 2009).

Read-outs that look alike come from different tables or passages of the source.

In assay [1] the test system is MCF-7/MCF-10A, T80-Hras/T80, C7-Kras/C7 cells. The experiment in a line: Proliferation by Trypan Blue cell counting in 3 pairs of cell lines. The assay is classed as cell-based, human. To be noted: 24 h, Fig. 3.
Assay [2] has the same test system. Nature of the assay: Cell death by Trypan Blue exclusion in 3 pairs of cell lines. To be noted: 24 h, Fig. 4. The class given is cell-based, human.
Assay [3] concerns the target hepatic CT-L, T-L, and PGPH activities (Mus musculus, UniProt O09061+O55234+P70195+Q60692). The class given is in vivo, nude mice. To be noted: livers of A549 tumor-bearing mice, 1 mpk i.p., 2 h after last injection.
In assay [4] the test system is C7 (HPDE6-C7) normal/immortalized pancreatic duct epithelial cells. Nature of the assay: MTT cell viability assay. The class given is cell-based, human. The settings on record: read-out: IC50 cell viability (MTT). (In general: Formazan colour is commonly taken as a measure of viable cells.)
The subject of assay [5] is MCF-7 human breast tumors. The experiment in a line: MCF-7 xenograft in nude mice. The assay is classed as in vivo. To be noted: MCF-7 s.c. xenograft, 1 mpk i.p. 2x weekly.
The target of assay [6] is tumor PGPH activity of the proteasome (Homo sapiens, UniProt P28072). Nature of the assay: Proteasome activity in A549 tumor lysates after in vivo treatment, PGPH. Also noted: species or system nude mice. The settings on record: A549 tumors, 1 mpk i.p., 2 h after last injection.

On to `O=C1C(Cl)=C(Nc2ccc(S(=O)(=O)Nc3ccccn3)cc2)C(=O)c2ccccc21` [PI-083], for which, in assay [1], the “inhibition of proliferation, cancer vs non-transformed cells” value is “more potently than their non-transformed”. For the same molecule, in assay [2], the “cell death, cancer vs non-transformed cells” value was “much more effective in increasing cell death in all 3 cancer cell lines over their non-transformed counterparts”. In addition, the “effect on liver proteasome activities (CT-L, T-L, PGPH)” value in assay [3] is “did not inhibit”. Moreover, the IC50 (commonly the point on the concentration scale where inhibition reaches its midpoint) was 5.1 ± 0.53 µM in assay [4] (C7, 24 h) and 4.2 ± 1.6 µM in assay [4] (C7, 72 h). For the same molecule, the tumor growth inhibition in assay [5] is reported as 84%. The average tumor size result in assay [5] (start ~200 mm^3, 16 days) is given as “about 396 ± 137 mm^3”. Moreover, in assay [6], the “inhibition of tumor PGPH activity vs vehicle-treated controls” value is reported as 34%.
